Structures can show the parent of a compound that is named as a salt.
Tests used:
[1] = target: T1, p110γ (Homo sapiens, UniProt P48736); assay: Biochemical PI3K inhibition assay, p110γ; settings: for IC50: 10 μM ATP, two hours, no regulatory subunit
T1 construct: His-tag; made in house; host or cells: Sf9 insect cells (baculovirus)
Excerpt: (§1) cDNA clones of PIK3CA, PIK3CB and PIK3CG were obtained from Origene (Rockville, MD, USA). PIK3CD was generously provided by Novartis Pharmaceuticals. The cDNA clones were sub-cloned into pFastBac His-Tag (Invitrogen, Carlsbad, CA, USA) and baculovirus clones were generated by the Bac-to-Bac expression system (Invitrogen). p110α, p110β and p110δ were co-expressed in Sf9 insect cells (Invitrogen) with a nSH2-iSH2 fragment of the regulatory subunit p85 comprising AA residues 322 to 600 [4]. p110γ was expressed without a regulatory subunit. Sf9 cells were lysed in a buffer containing 50 mM sodium phosphate, pH 8.0, 400 mM NaCl, 5% glycerol, 1% Triton X-100, 10 mM 2-mercaptoethanol, 1 mM orthovanadate, 10 mM imidazole, and sonicated on ice for 1 minute. Proteins were purified by adding Ni-NTA Superflow beads (Qiagen, Valencia, CA, USA) to the lysate and subsequent rolling for 30 min at 4°C. Beads were washed twice with 50 mM phosphate buffer, pH 8.0, 0.5 M NaCl, 50 mM Imidazole, 2 mM DTT and eluted in the same buffer but with 200 mM imidazole. Purified PI3K's were mixed 1:1 with glycerol and stored at -20°C.
(§2) J-series inhibitors were dissolved, serial diluted in DMSO and deposited into 96 well plates at a final DMSO concentration of 1%. We used a novel assay to determine their potency and selectivity. In brief, micelles of 2.5 μg L-a-Phosphatidylinositol and 2.5 μg 1,2-Diacyl-sn-glycero-3-phospho-L-serine were formed by sonication, mixed with the individual PI3K isoforms and added to the drug dilutions in a reaction buffer containing 10 mM HEPES, 25 mM NaCl, 0.125 μg/μl BSA, and 2 mM BME (final concentrations). Reactions were timed after the addition of 10 μM ATP with 40 μCi/ml γ-32P-ATP (PerkinElmer, Waltham, MA, USA) and 2 mM MgCl2 (all final concentrations). The reactions were terminated after two hours by the addition of 2 N HCl and the lipids extracted with 1:1 MetOH/Chloroform. Radio-labeled phosphatidyl-inositol-3-phosphate in the extracted organic fraction was quantified after the addition of Microscint O (PerkinElmer) using a TopCount 96 well plate scintillation counter (PerkinElmer). IC50 concentrations and inhibition curves were calculated using Prism 5 (GraphPad Software, La Jolla, CA).

[2] = target: T2, p110δ (Homo sapiens, UniProt O00329); assay: Biochemical PI3K inhibition assay, p110δ; settings: for IC50: 10 μM ATP, two hours
T2 construct: His-tag; made in house; host or cells: Sf9 insect cells (baculovirus)
T2 sequence (O00329 whole entry): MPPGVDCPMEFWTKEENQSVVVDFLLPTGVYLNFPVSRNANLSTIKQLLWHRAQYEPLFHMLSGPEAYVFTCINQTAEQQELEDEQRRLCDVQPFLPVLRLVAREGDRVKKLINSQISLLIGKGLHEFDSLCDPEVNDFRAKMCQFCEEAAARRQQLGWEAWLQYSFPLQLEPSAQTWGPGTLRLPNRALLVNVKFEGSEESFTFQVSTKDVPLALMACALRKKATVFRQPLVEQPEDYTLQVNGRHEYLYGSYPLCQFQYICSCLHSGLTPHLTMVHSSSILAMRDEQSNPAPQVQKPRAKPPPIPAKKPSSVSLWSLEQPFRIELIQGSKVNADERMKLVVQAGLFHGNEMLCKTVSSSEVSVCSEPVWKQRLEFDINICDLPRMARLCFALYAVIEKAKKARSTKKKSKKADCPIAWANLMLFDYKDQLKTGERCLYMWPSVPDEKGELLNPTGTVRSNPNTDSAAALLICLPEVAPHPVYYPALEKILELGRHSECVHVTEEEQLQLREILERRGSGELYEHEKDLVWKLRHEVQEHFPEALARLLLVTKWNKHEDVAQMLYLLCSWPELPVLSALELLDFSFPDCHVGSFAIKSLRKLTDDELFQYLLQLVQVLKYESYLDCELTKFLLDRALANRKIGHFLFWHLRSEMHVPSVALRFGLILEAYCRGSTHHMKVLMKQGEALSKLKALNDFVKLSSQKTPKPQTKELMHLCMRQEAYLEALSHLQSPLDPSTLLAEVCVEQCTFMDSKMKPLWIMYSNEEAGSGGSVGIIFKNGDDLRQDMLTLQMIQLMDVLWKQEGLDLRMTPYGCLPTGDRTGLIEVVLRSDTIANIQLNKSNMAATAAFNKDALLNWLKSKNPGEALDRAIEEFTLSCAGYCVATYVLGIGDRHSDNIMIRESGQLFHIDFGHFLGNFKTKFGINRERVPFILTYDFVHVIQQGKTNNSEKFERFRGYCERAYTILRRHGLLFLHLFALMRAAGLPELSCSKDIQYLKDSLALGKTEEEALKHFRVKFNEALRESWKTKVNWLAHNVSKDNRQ
T2 sequence (P27986 322-600 partner limits assumed): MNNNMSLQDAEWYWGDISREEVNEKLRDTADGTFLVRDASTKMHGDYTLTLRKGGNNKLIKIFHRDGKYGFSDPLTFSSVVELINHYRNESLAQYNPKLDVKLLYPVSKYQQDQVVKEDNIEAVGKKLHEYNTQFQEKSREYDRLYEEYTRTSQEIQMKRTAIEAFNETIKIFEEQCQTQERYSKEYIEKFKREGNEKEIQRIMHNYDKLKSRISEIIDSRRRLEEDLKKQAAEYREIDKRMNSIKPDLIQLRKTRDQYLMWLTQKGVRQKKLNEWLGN
Excerpt: as §1, §2

[3] = target: T3, p110α (Homo sapiens, UniProt P42336); assay: Biochemical PI3K inhibition assay, p110α; settings: for IC50: 10 μM ATP, two hours; for effect of substitution on PI3Kα potency/selectivity (in words): SAR discussion
T3 construct: His-tag; made in house; host or cells: Sf9 insect cells (baculovirus)
T3 sequence (P42336 whole entry): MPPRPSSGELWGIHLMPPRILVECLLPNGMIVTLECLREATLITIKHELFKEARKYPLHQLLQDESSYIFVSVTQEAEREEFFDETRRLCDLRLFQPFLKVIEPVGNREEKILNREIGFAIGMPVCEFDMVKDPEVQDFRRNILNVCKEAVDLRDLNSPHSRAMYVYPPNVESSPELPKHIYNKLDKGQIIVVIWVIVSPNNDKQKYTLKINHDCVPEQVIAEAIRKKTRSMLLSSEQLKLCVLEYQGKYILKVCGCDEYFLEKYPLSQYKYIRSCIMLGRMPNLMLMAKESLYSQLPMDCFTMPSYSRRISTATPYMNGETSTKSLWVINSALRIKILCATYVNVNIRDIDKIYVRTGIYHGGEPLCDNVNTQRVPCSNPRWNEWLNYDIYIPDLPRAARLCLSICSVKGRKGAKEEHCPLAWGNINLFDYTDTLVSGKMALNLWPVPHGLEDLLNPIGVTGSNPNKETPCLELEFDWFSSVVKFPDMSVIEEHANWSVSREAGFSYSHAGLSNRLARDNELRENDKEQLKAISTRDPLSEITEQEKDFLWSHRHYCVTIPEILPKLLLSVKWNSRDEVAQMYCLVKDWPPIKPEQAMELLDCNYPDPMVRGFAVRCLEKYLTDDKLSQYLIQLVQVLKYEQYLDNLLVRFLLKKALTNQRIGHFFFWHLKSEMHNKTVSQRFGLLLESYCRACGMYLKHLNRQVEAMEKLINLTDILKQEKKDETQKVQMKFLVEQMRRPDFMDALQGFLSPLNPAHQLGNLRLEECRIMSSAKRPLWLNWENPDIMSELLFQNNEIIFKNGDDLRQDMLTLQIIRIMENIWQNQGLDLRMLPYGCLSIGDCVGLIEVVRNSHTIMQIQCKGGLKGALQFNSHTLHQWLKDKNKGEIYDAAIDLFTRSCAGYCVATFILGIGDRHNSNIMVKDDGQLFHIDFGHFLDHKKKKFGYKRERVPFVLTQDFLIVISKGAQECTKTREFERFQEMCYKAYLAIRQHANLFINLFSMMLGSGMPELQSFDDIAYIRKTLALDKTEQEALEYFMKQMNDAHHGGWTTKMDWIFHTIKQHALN
T3 sequence (P27986 322-600 partner limits assumed): as the sequence (P27986 322-600 partner limits assumed) above
Protocol: PIK3CD was generously provided by Novartis Pharmaceuticals. […] Sf9 cells were lysed in a buffer containing 50 mM sodium phosphate, pH 8.0, 400 mM NaCl, 5% glycerol, 1% Triton X-100, 10 mM 2-mercaptoethanol, 1 mM orthovanadate, 10 mM imidazole, and sonicated on ice for 1 minute. Proteins were purified by adding Ni-NTA Superflow beads (Qiagen, Valencia, CA, USA) to the lysate and subsequent rolling for 30 min at 4°C. Beads were washed twice with 50 mM phosphate buffer, pH 8.0, 0.5 M NaCl, 50 mM Imidazole, 2 mM DTT and eluted in the same buffer but with 200 mM imidazole. Purified PI3K's were mixed 1:1 with glycerol and stored at -20°C.
as §2, with “In brief, micelles of 2.5 μg L-a-Phosphatidylinositol and 2.5 μg 1,2-Diacyl-sn-glycero-3-phospho-L-serine were formed by sonication, mixed with the individual PI3K isoforms and added to the drug dilutions in a reaction buffer containing 10 mM HEPES, 25 mM NaCl, 0.125 μg/μl BSA, and 2 mM BME (final concentrations).” left out

[4] = target: T4, p110β (Homo sapiens, UniProt P42338); assay: Biochemical PI3K inhibition assay, p110β; settings: for IC50: 10 μM ATP, two hours
T4 construct: His-tag; made in house; host or cells: Sf9 insect cells (baculovirus)
T4 sequence (P42338 whole entry): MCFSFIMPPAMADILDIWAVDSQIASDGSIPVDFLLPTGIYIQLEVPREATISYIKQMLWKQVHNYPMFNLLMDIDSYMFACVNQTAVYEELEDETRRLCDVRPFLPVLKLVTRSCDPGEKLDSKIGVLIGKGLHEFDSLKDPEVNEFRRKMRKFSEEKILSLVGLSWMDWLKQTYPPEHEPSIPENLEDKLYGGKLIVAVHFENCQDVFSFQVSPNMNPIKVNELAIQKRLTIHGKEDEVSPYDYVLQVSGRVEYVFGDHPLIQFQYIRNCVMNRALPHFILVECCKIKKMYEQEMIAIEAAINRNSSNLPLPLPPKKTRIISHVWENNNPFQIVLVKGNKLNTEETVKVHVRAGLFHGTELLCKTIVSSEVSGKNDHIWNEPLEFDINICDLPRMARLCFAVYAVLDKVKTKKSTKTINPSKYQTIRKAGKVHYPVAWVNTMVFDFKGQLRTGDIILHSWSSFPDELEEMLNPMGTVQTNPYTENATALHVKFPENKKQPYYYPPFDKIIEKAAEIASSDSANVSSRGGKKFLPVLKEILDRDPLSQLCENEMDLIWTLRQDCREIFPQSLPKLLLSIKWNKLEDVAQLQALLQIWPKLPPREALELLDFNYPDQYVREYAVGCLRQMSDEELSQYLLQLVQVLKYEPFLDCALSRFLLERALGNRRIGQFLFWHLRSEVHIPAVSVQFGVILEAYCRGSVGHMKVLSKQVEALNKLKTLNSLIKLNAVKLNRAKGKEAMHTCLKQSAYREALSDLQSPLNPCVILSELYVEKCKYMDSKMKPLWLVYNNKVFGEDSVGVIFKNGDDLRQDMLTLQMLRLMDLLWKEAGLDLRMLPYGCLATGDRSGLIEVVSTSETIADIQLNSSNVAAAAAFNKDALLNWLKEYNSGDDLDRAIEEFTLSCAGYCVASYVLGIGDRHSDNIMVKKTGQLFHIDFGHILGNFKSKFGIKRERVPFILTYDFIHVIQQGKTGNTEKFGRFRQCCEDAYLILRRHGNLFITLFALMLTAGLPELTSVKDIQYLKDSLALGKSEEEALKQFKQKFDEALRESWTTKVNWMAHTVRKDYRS
T4 sequence (P27986 322-600 partner limits assumed): as the sequence (P27986 322-600 partner limits assumed) above
Excerpt: as §1, §2

T1 sequence (P48736 whole entry): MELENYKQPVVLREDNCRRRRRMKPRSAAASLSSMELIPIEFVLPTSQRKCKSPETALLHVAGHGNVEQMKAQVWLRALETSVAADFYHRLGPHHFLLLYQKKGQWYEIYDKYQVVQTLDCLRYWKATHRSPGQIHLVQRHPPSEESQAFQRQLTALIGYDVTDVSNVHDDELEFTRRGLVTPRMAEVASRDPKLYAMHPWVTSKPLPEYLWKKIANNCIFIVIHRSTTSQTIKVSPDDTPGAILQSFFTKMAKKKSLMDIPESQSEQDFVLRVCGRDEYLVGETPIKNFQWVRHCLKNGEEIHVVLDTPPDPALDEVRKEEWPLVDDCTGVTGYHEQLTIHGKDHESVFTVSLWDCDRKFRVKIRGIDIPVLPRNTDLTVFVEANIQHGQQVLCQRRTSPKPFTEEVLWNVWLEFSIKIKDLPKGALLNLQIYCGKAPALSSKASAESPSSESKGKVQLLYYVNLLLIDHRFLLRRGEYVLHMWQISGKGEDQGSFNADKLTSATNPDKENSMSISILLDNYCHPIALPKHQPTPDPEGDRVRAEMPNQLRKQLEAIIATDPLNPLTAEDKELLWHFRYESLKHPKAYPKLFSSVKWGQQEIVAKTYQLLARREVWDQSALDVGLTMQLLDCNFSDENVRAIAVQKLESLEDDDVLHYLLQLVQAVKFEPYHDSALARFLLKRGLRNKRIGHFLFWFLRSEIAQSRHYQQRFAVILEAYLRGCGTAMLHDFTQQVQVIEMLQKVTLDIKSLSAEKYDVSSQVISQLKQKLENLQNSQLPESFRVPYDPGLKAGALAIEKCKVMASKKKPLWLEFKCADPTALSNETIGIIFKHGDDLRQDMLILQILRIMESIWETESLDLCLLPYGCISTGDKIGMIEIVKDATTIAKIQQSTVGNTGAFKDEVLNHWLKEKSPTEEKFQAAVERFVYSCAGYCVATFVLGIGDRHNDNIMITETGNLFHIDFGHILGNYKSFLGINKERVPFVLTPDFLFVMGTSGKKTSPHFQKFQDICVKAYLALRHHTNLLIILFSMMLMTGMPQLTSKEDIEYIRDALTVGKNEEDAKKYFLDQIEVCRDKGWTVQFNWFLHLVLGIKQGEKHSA

Row | IC50 [1] [nM] | IC50 [2] [nM] | IC50 [3] [nM] | drop/decrease in inhibitory activity for PI3Kα ([3]; compared to J32) | IC50 [4] [nM] | effect of substitution on PI3Kα potency/selectivity (in words) [3] | increase of inhibitory activity for PI3Kα ([3]; compared to J32) [fold] | selectivity against PI3Kγ ([1]; relative to PI3Kα) [fold] | selectivity against PI3Kδ ([2]; relative to PI3Kα) [fold] | selectivity against PI3Kβ ([4]; relative to PI3Kα) | Structure (SMILES)
1 | 75 | – | – | – | – | – | – | – | – | – | Cc1ccc([N+](=O)[O-])cc1S(=O)(=O)N(C)/N=C/c1cnc2ccc(Br)cn12 [J27, N'-[(1E)-(6-Bromoimidazo [1,2-a]pyridin-3-yl)methylene]-N,2-dimethyl-5-nitrobenzenesulfonohydrazide hydrochloride, reference compound]
2 | 3160 | 781 | 730 | 6 to 49 fold | 6310 | – | – | – | – | – | Cc1ccc([N+](=O)[O-])cc1S(=O)(=O)N(Cc1ccccc1)/N=C/c1cnc2ccc(Br)cn12 [J30]
3 | 801 | 476 | 55 | greater than 3.6 fold | 3060 | – | – | – | – | – | CCN(/N=C/c1cnc2ccc(Br)cn12)S(=O)(=O)c1cccc([N+](=O)[O-])c1 [J37]
4 | 180000 | 53000 | 20000 | > 1333 fold | 61000 | – | – | – | – | – | CCN(/N=C/c1cnc2ccc(Br)cn12)S(=O)(=O)c1ccccc1C [J40]
5 | 253000 | 3550 | 23200 | – | 235000 | impaired potency | – | – | – | – | CCN(/N=C/c1cnc2ccc(Br)cn12)S(=O)(=O)c1cc(S(C)(=O)=O)ccc1C [J41]
6 | 930 | 363 | 154 | – | 1900 | did not increase potency | – | – | – | – | CCOC(=O)CN(/N=C/c1cnc2ccc(Br)cn12)S(=O)(=O)c1cc([N+](=O)[O-])ccc1C [J43]
7 | 30000 | 28000 | 4400 | – | 21000 | impaired potency | – | – | – | – | CCN(/N=C/c1cnc2ccc(Br)cn12)S(=O)(=O)c1cc(N)ccc1C [J44]
8 | 132 | 16 | 20 | – | 75 | decreased selectivity for the latter | – | – | – | – | CCN(/N=C/c1cnc2ccc(Br)cn12)C(=O)c1cc([N+](=O)[O-])ccc1C [J45]
9 | 1750 | 485 | 309 | 6 to 49 fold | 2970 | – | – | – | – | – | Cc1ccc([N+](=O)[O-])cc1S(=O)(=O)N(CC(C)C)/N=C/c1cnc2ccc(Br)cn12 [J46]
10 | 192 | 169 | 25 | – | 149 | did not increase potency | – | – | – | – | Cc1ccc([N+](=O)[O-])cc1S(=O)(=O)N(CCC#N)/N=C/c1cnc2ccc(Br)cn12 [J47]
11 | 3340 | 760 | 93 | 6 to 49 fold | 2420 | – | – | – | – | – | Cc1ccc([N+](=O)[O-])cc1S(=O)(=O)N(/N=C/c1cnc2ccc(Br)cn12)C(C)C [J55]
12 | 5120 | 173 | 121 | – | 2000 | impaired potency | – | – | – | – | CCN(/N=C/c1cnc2ccc(Br)cn12)S(=O)(=O)c1cc(C(=O)O)ccc1C [J100]
13 | 812 | 266 | 22 | – | 936 | maintain potency and isoform selectivity | – | – | – | – | CCN(/N=C/c1cnc2ccc(Br)cn12)S(=O)(=O)c1cc([N+](=O)[O-])ccc1Cl [J101]
14 | 1000 | 38 | 76 | – | 600 | impaired potency | – | – | – | – | CCN(/N=C/c1cnc2ccc(Br)cn12)S(=O)(=O)c1cc(C(N)=O)ccc1Cl [J125]
15 | 32 | 348 | 4 | – | 1880 | – | 3.8 | – | – | – | CCN(/N=C/c1cnc2ccc(Br)cn12)S(=O)(=O)c1cc([N+](=O)[O-])c(NCC(=O)O)cc1C [J159]
16 | 140 | 230 | 11 | – | 8200 | – | – | – | – | – | CCN(/N=C/c1cnc2ccc(Br)cn12)S(=O)(=O)c1cc([N+](=O)[O-])c(NC(C)C(=O)O)cc1C (stereo not drawn) [J160]
17 | 1150 | 1960 | 19 | – | 12800 | retained nanomolar potencies | – | 60 | 100 | ~ 670 fold | CCN(/N=C/c1cnc2ccc(Br)cn12)S(=O)(=O)c1cc([N+](=O)[O-])c(NCC(=O)NC(Cc2ccccc2)C(=O)O)cc1C (stereo not drawn) [J171]

Row | Structure (SMILES) | IC50 [1] [nM] | IC50 [2] [nM] | IC50 [3] [nM] | drop/decrease in inhibitory activity for PI3Kα ([3]; compared to J32) | IC50 [4] [nM] | effect of substitution on PI3Kα potency/selectivity (in words) [3] | increase of inhibitory activity for PI3Kα ([3]; compared to J32) [fold] | selectivity against PI3Kγ ([1]; relative to PI3Kα) [fold] | selectivity against PI3Kδ ([2]; relative to PI3Kα) [fold] | selectivity against PI3Kβ ([4]; relative to PI3Kα)
18 | CCN(/N=C/c1cnc2ccc(Br)cn12)S(=O)(=O)c1cc([N+](=O)[O-])c(F)cc1C [J120] | 1800 | 470 | 24 | – | 1900 | did not impact the inhibitory activity for PI3Kα substantially | – | – | – | –
19 | CCN(/N=C/c1cnc2ccc(Br)cn12)S(=O)(=O)c1cc([N+](=O)[O-])c(O)cc1C [J129] | 150 | 66 | 20 | – | 510 | did not impact the inhibitory activity for PI3Kα substantially | – | – | – | –
20 | CCN(/N=C/c1cnc2ccc(Br)cn12)S(=O)(=O)c1cc([N+](=O)[O-])c(NCCOC)cc1C [J157] | 1000 | 430 | 24 | – | 3000 | did not impact the inhibitory activity for PI3Kα substantially | – | – | – | –
21 | CCN(/N=C/c1cnc2ccc(Br)cn12)S(=O)(=O)c1cc([N+](=O)[O-])c(NCCOCCO)cc1C [J158] | 200 | 440 | 17 | – | 3500 | did not impact the inhibitory activity for PI3Kα substantially | – | – | – | –
22 | CCN(/N=C/c1cnc2ccc(Br)cn12)S(=O)(=O)c1cc([N+](=O)[O-])c(NCC(=O)OC)cc1C [J161] | 940 | 16000 | 33 | – | – | did not impact the inhibitory activity for PI3Kα substantially | – | – | – | –
23 | CCN(/N=C/c1cnc2ccc(Br)cn12)S(=O)(=O)c1cc([N+](=O)[O-])c(NCCO)cc1C [J162] | 210 | 400 | 25 | – | 2400 | did not impact the inhibitory activity for PI3Kα substantially | – | – | – | –
24 | CCN(/N=C/c1cnc2ccc(Br)cn12)S(=O)(=O)c1cc([N+](=O)[O-])c(NCC(N)=O)cc1C [J163] | 74 | 130 | 14 | – | 2100 | did not impact the inhibitory activity for PI3Kα substantially | – | – | – | –

— PMC3004370, “PI3Kα Inhibitors That Inhibit Metastasis” (Oncotarget, 2010)
